Test results reported in ChEMBL document CHEMBL3853354, “Structure-activity relationships of proline modifications around the tetracyclic-indole class of NS5A inhibitors” (Bioorg Med Chem Lett, 2016).

Key:
[1] = tested on: Hepatitis C virus subtype 1a; assay: Inhibition of NS5A in HCV genotype 1a assessed as reduction in replicon RNA level after 3 days by cell based RT-PCR method
[2] = tested on: Hepatitis C virus subtype 2b; assay: Inhibition of NS5A in HCV genotype 2b assessed as reduction in replicon RNA level after 3 days by cell based RT-PCR method
[3] = tested on: Nonstructural protein 5A (Hepatitis C virus), Q5L478 [UNDEFINED MUTATION]; assay: Inhibition of NS5A L31V mutant in HCV genotype 1a assessed as reduction in replicon RNA level after 3 days by cell based RT-PCR method; details: Hepatitis C virus subtype 1a
[4] = tested on: Hepatitis C virus subtype 1a; assay: Selectivity ratio of EC90 for NS5A L31V mutant in HCV genotype 1a to EC90 for NS5A in HCV genotype 1a
[5] = tested on: T1, Nonstructural protein 5A (Hepatitis C virus), Q5L478 [Y93H]; assay: Inhibition of NS5A Y93H mutant in HCV genotype 1a assessed as reduction in replicon RNA level after 3 days by cell based RT-PCR method; details: Hepatitis C virus subtype 1a
T1 sequence (whole entry): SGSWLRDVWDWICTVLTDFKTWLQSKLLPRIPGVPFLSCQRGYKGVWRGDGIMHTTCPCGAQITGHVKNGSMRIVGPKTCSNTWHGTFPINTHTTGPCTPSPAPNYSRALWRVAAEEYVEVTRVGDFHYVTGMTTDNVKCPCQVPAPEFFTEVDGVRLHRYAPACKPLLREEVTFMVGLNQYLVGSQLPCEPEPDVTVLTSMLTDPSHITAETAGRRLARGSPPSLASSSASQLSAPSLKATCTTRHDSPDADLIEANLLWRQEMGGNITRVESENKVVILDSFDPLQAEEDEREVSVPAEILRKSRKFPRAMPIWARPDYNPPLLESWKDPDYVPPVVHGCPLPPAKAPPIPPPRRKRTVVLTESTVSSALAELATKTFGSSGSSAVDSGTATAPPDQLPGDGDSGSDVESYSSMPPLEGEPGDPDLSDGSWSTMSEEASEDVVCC

[6] = tested on: Hepatitis C virus subtype 1a; assay: Selectivity ratio of EC90 for NS5A Y93H mutant in HCV genotype 1a to EC90 for NS5A in HCV genotype 1a
[7] = Selectivity ratio of EC90 for NS5A in HCV genotype 2b to EC90 for NS5A in HCV genotype 1a
[8] = Clearance in rat at 2 mg/kg, iv; format: ADME, organism-based; details: in vivo
[9] = Half life in rat at 2 mg/kg, iv; format: ADME, organism-based; details: in vivo
[10] = Oral bioavailability in rat at 10 mg/kg; format: ADME, organism-based; details: in vivo
[11] = Cmax in rat at 10 mg/kg, po; format: ADME, organism-based; set-up: dose 10 mg/kg, route oral; details: in vivo
[12] = AUC in rat at 10 mg/kg, po; format: ADME, organism-based; details: in vivo
[13] = tested on: Hepatitis C virus subtype 3a; assay: Inhibition of NS5A in HCV genotype 3a assessed as reduction in replicon RNA level after 3 days by cell based RT-PCR method

| SMILES | EC90 [1] [nM] | EC90 [2] [nM] | EC90 [3] [nM] | Selectivity ratio [4] | EC90 [5] [nM] | Selectivity ratio [6] | Selectivity ratio [7] | clearance [8] [mL/min/kg] | half-life [9] [h] | bioavailability [10] [%] | Cmax [11] [nM] | AUC [12] [µM·h] | EC90 [13] [nM] |
| --- | --- | --- | --- | --- | --- | --- | --- | --- | --- | --- | --- | --- | --- |
| COC(=O)N[C@H](C(=O)N1CCC[C@H]1c1ncc(-c2cc(F)c3c(c2)OC(c2ccc4c(c2)OCCC4)n2c-3cc3cc(-c4cnc([C@@H]5CCCN5C(=O)[C@@H](NC(=O)OC)C(C)C)[nH]4)ccc32)[nH]1)C(C)C (stereo partly specified) | 0.003 | 0.31 | 0.0025 | 1 | 0.48 | 160 | 103 | – | – | – | – | – | – |
| COC(=O)N[C@H](C(=O)N1CCC[C@H]1c1ncc(-c2cc(F)c3c(c2)OC(c2ccccc2)n2c-3cc3cc(-c4cnc([C@@H]5C[C@H]6C[C@H]6N5C(=O)[C@@H](NC(=O)OC)C(C)C)[nH]4)ccc32)[nH]1)C(C)C (stereo partly specified) | 0.016 | 16.3 | 0.42 | 26 | 3.17 | 200 | 1000 | – | – | – | – | – | – |
| COC(=O)N[C@H](C(=O)N1CCC[C@H]1c1ncc(-c2cc(F)c3c(c2)OC(c2ccc4c(c2)OCCC4)n2c-3cc3cc(-c4cnc([C@@H]5C[C@H]6C[C@H]6N5C(=O)[C@@H](NC(=O)OC)C(C)C)[nH]4)ccc32)[nH]1)C(C)C (stereo partly specified) | 0.004 | 0.38 | 0.007 | 2 | 0.12 | 30 | 95 | 11.4 | 4.6 | 4 | 73 | 0.63 | – |
| COC(=O)N[C@H](C(=O)N1CCC[C@H]1c1ncc(-c2ccc3c(c2)OC(c2cccc(OC)c2)n2c-3cc3cc(-c4cnc([C@@H]5C[C@H]6C[C@H]6N5C(=O)[C@@H](NC(=O)OC)C(C)C)[nH]4)ccc32)[nH]1)C(C)C (stereo partly specified) | 0.013 | 4.66 | 0.13 | 10 | 6.45 | 500 | 360 | 6 | 4.7 | 13 | 630 | 3.64 | – |
| COC(=O)N[C@H](C(=O)N1CCC[C@H]1c1ncc(-c2cc(F)c3c(c2)OC(c2cccc(OC)c2)n2c-3cc3cc(-c4cnc([C@@H]5CCCN5C(=O)[C@@H](NC(=O)OC)C(C)C)[nH]4)ccc32)[nH]1)C(C)C (stereo partly specified) | 0.01 | 5.72 | – | 20 | – | 230 | 570 | – | – | – | – | – | 0.07 |
| COC(=O)N[C@H](C(=O)N1CCC[C@H]1c1ncc(-c2ccc3c(c2)cc2n3C(c3ccccc3)Oc3cc(-c4cnc([C@@H]5C[C@@H](F)CN5C(=O)[C@@H](NC(=O)OC)C(C)C)[nH]4)cc(F)c3-2)[nH]1)C(C)C (stereo partly specified) | 0.006 | 63.6 | 2.17 | 362 | 1.4 | 233 | 10600 | – | – | – | – | – | – |
